# From paper PMC5493638, “Adiponectin is an endogenous anti-fibrotic mediator and therapeutic target” (Scientific Reports, 2017)
# Residues, ends and D or L forms follow the SMILES beside them.
# B1: adiponectin: 30 kDa secreted adipokine abundant in the circulation (protein, UniProt Q15848 19-244, looked up)
# Adiponectin: ETTTQGPGVLLPLPKGACTGWMAGIPGHPGHNGAPGRDGRDGTPGEKGEKGDPGLIGPKGDIGETGVPGAEGPRGFPGIQGRKGEPGEGAYVYRSAFSVGLETYVTIPNMPIRFTKIFYNQQNHYDGSTGKFHCNIPGLYYFAYHITVYMKDVKVSLFKKDKAMLFTYDQYQENNVDQASGSVLLHLEVGDQVWLQVYGEGERNGLYADNDNDSTFTGFLLYHDTN
# What was measured:
# [1] = tested on: C57BL6/J mice; assay: Bleomycin-induced skin fibrosis in mice; type: in vivo, mouse
# From the text: (§1) Bleomycin (BLM) or phosphate buffered saline (PBS) was given by daily subcutaneous (s.c.) injection for 14 consecutive days[55]. In some experiments, mice were given a single s.c. injection of adenovirus expressing constitutively-active TGF-ß1 (TGFß1^223/225 3x10^9 PFU/ml) or beta-galactosidase (5x10^9 PFU/ml)[56]. Peritoneal fibrosis was induced by i.p. injections of 0.1% chlorhexidine gluconate (CG; Wako Pure Chemical Industries, Osaka, Japan) dissolved in 15% ethanol/PBS given on alternate days for 21 days[35]. Synthetic peptides targeting AdipoR (ADP355 or ADP27)[37] or vehicle (PBS) at the indicated concentrations were administered by daily i.p. injection for 14 or 24 days. Each experimental group consisted of 4–8 mice, and experiments were repeated at least two times with consistent results. At the end of the experiments, mice were sacrificed and blood and tissue were collected for analysis.
# Harvested skin or parietal peritoneal membrane samples were fixed in PFA, embedded in paraffin and 4 μm thick sections were stained with hematoxylin and eosin (H&E). Collagen deposition and organization were assessed using Masson’s Trichrome staining. Thickness of the dermis, dWAT or peritoneal membrane were determined at five randomly selected locations/slide using ImageJ software.
# Collagen content of lesional skin was determined by measuring the hydroxyproline content in 6-mm punch biopsy samples (BioVision, Milpitas, CA) (16). Serum levels of adiponectin were determined by ELISA which measures all adiponectin isoforms (Millipore; #EZMADP-60K)[9].
# (§2) RNA was isolated from skin samples using RNAeasy Fibrous Tissue Mini kit (Qiagen, Valencia, CA), or from fibroblast cultures, using the RNeasy Plus mini kit (Qiagen), and processed for qPCR as described. mRNA levels were normalized to the levels of 18 S RNA or GAPDH, and the relative amounts were calculated using the 2^−ΔΔCt method.
# [2] = tested on: normal dermal fibroblasts; assay: TGF-ß-induced fibrotic gene expression in skin fibroblasts (qPCR, Western blot); type: cell-based, human
# From the text: (§3) Primary cultures of healthy adult and SSc skin fibroblasts, and neonatal fibroblasts, were established by explantation. The clinical features of the subjects are shown in Supplementary Table 5. Protocols for skin biopsies were approved by the Institutional Review Board at Northwestern University. Embryonic fibroblasts from AMP protein kinase (AMPK)^−/− mice and wild-type mice were a gift from Yu-Ying He (University of Chicago). When cultures reached confluence, serum-free media supplemented with 0.1% bovine serum albumin (BSA) were added prior to TGF-β2 (Peprotech, Rocky Hill, NJ) or/and ADP355 (10 μM)[37], and incubation continued for a further 24 h. Cytotoxicity was evaluated using LDH assays (Biovision).
# as §2
# At the end of the experiments, fibroblasts were harvested and whole cell lysates (100 μg) were subjected to Western-blot analysis[25] using antibodies for Type I collagen (Southern Biotech), α-SMA (Sigma), phospho-Smad2/3 (Cell-Signaling), phospho-FAK (pY397, Cell Signaling), total-FAK (Cell Signaling) or GAPDH (Zymed, San Francisco, CA). […]
# [3] = tested on: skin fibroblasts; assay: Cytotoxicity, LDH assay; type: cell-based, human; conditions: concentrations of ADP355 used for these experiments (10 μM)
# From the text: as §3
# [4] = tested on: skin fibroblasts; assay: In vitro competition binding with labeled peptides; parameters: species or system human; conditions: unlabeled ADP355 100 μg/ml 10 min, then ADP355-Dy675 5 μg/ml 30 min, confocal microscopy
# Experimental: To evaluate in vitro peptide binding, skin fibroblasts seeded on coverslips were preincubated with unlabeled ADP355 (100 μg/ml) for 10 min, followed by labeled ADP355-Dy675 (5 μg/ml), or labeled control peptide (Api88 Dy675, gift from Daniel Knappe, Leipzig, Germany) for 30 min. Cells were fixed in 4% phosphate buffered paraformaldehyde (PFA) and visualized using a Nikon A1 confocal microscope. To evaluate in vivo biodistribution, C57BL6/J mice were injected i.p. with Dy675-coupled peptide (20 μg/mouse or […]) and 10 min later, dorsal skin was harvested and processed for immunofluorescence analysis.
# [5] = tested on: [SBE]4-luc (canonical Smad pathway); assay: [SBE]4-luc transient transfection reporter assay; type: cell-based, human; conditions: transiently transfected fibroblasts, ADP355 and TGF-β 24 h, luciferase
# Experimental: Fibroblasts at early confluence were transfected with [SBE]4-luc plasmids or indicated reporter constructs using SuperFect Transfection (Qiagen)[61]. Cultures were incubated in serum-free media containing 0.1% BSA for 16 h, followed by ADP355 and TGF-β for a further 24 h[61]. Whole cell lysates were assayed for luciferase activities using the dual-luciferase reporter assay system (Promega, Madison, WI). In each experiment, Renilla luciferase pRL-TK (Promega) was cotransfected as control for transfection efficiency. Experiments were performed in triplicate and repeated at least twice with consistent results. For RNAi-mediated transcript silencing, fibroblasts were transfected with target-specific short interfering siRNA specific for AdipoR1/R2 (Dharmacon, Lafayette, CO) or scrambled control siRNA (10 nM, unless otherwise indicated). Twenty-four hours following transfection, fresh media containing TGF-β (2 ng/ml) or ADP355 (10 μM) were added to the cultures and incubation continued for a further 24 h.
# [6] = tested on: phospho-Smad2/3; assay: Smad2/3 phosphorylation elicited by TGF-ß (Western); type: cell-based, human; conditions: fibroblasts treated with ADP355
# Experimental: (§4) At the end of the experiments, fibroblasts were harvested and whole cell lysates (100 μg) were subjected to Western-blot analysis[25] using antibodies for Type I collagen (Southern Biotech), α-SMA (Sigma), phospho-Smad2/3 (Cell-Signaling), phospho-FAK (pY397, Cell Signaling), total-FAK (Cell Signaling) or GAPDH (Zymed, San Francisco, CA). Electrophoretic bands were detected using enhanced chemiluminescence reagents (Pierce Biotechnology, Rockford, IL), and band intensities were quantified with Image J software. Results were normalized with GAPDH levels in each sample.
# [7] = tested on: normal dermal fibroblasts; assay: Scratch assay of fibroblast migration; type: cell-based, human; conditions: widths after 48 h
# Experimental: Figure 4 ADP355 inhibits fibrotic responses in normal and SSc skin fibroblasts. (a–d). Confluent cultures of normal dermal fibroblasts were preincubated with ADP355, followed by TGF-β2 for 24 h. (a) Total RNA was subjected to real-time qPCR. Results are mean ± SD of triplicate determinations. *p < 0.05, **p < 0.01. (b) Western blot of whole cell lysates. Representative results. Fold change in Type I collagen (Cgn I) levels relative to control is shown at bottom. (c) Fibroblasts were transiently transfected with [SBE]4-luc reporter plasmids, and cell lysates were assayed for their luciferase activities. Results are mean ± SD of triplicate determinations. **p < 0.001 (d) Scratch assays were performed and the widths determined after 48 h. Results are mean ± SEM of triplicate determinations at three randomly selected sites. (e) 3D human skin equivalents populated with normal fibroblasts were incubated in media with ADP355 and TGF-β2 for 6 days. RNA was isolated for qPCR. Results are mean ± SD of triplicate determinations *p < 0.05, **p < 0.001. (f) SSc skin fibroblasts (n = 5) incubated with ADP355 for 24 h were immunostained with antibodies to αSMA (green) or type I collagen (Cgn1, red), or stained with DAPI (blue). Left panels, representative immunofluorescence photomicrographs (original magnification × 400). Right panels, immunofluorescence intensity. […]
# [8] = tested on: 3D human skin equivalents populated with normal skin fibroblasts; assay: 3D human skin equivalents, fibrotic responses (qPCR); type: cell-based; conditions: peptide 10 uM with TGF-β2 for 6 days
# Experimental: Normal human skin fibroblasts (3 × 10^5cells) were mixed with rat tail Type I collagen (4 mg/ml, BD Biosciences, San Jose, CA) and seeded in 12-well plates, [60]. Epidermal keratinocytes (6 × 10^6 cells) were seeded on the collagen plugs. Forty-eight hours later, the 3D organotypic cultures were placed on metal grids (BD Biosciences) and maintained for 5 days at an air-medium interface. Peptides (10 uM) were then added in media with or without TGF-β, and incubations continued for a further six days. Experiments were harvested, and RNA was isolated for analysis.
# as §2
# [9] = tested on: SSc skin fibroblasts; assay: Constitutive fibrotic gene expression in SSc fibroblasts; type: cell-based, human; conditions: unstimulated SSc fibroblasts (n = 5), ADP355 24 h, αSMA and type I collagen immunofluorescence
# Experimental: (§5) Normal skin fibroblasts (10,000 cells/well) seeded in 8-well Lab-Tek II chamber glass slides (Nalge Nunc International, Naperville, IL) were incubated in media with indicated reagents. At the end of the experiments, cells were fixed, permeabilized, and incubated with primary antibodies to α-SMA (1:500, Sigma), phospho-FAK (pY397; 1:50, Abcam), vinculin (1:200, Abcam), Alexa Fluor 488 phalloidin (1:200, Invitrogen) or Type I collagen (1:100, Southern Biotech), followed by appropriate secondary antibodies conjugated to Alexa Fluor (Invitrogen), and evaluated under a Nikon C1Si confocal microscope.
# as §3
# [10] = tested on: phospho-AMP kinase (Thr172); assay: AMPK phosphorylation in normal fibroblasts (immunofluorescence); type: cell-based, human; conditions: ADP355 60 min, confocal immunofluorescence
# [11] = tested on: AMPK-null MEFs; assay: Anti-fibrotic activity in AMPK-null MEFs (qPCR); type: cell-based; conditions: mouse embryonic fibroblasts, ADP355 24 h
# From the text: as §3, §2
# [12] = tested on: p-FAK Y397; assay: FAK phosphorylation and focal adhesion complex assembly; type: cell-based, human; conditions: normal skin fibroblasts, pretreatment with ADP355
# Experimental: as §5, §4
# [13] = Ex vivo stability in serum; type: in vitro ADME; conditions: 30 min incubation with serum, intact peptide, data not shown
# [14] = Tolerability of chronic treatment in mice; type: in vivo, mouse; conditions: 1 mg/kg/d i.p. for up to 28 days
# From the text: as §1
# [15] = cited from earlier work
# From the text: (§6) An alternate potential strategy is to mimic adiponectin biological activity using small molecules.
# [16] = tested on: AdipoR-positive cancer cell lines; conditions: cited from earlier work
# From the text: as §6
# [17] = tested on: AdipoR; conditions: screening of 66 overlapping 10-amino acid peptides of the globular domain of adiponectin; cited from earlier work
# From the text: as §6
# [18] = tested on: AMP-activated protein kinase (AMPK); conditions: cited from earlier work
# From the text: as §6
# [19] = daily i.p. ADP355 initiated concurrently with BLM
molecule,measurement,setting,value
"H-LYYFAYHITV-NH2 [ADP27, H-Leu-Tyr-Tyr-Phe-Ala-Tyr-His-Ile-Thr-Val-NH2]",anti-fibrotic effects in mice compared with ADP355,"[1]; mice treated with ADP27, Supplementary Fig. 9a,b",Comparable anti-fibrotic effects
"CCC[C@H](NC(=O)[C@@H]1CCCN1C(=O)[C@@H](NC(=O)[C@H](N)CC(N)=O)[C@@H](C)CC)C(=O)N[C@@H](CC(C)C)C(=O)N[C@@H](Cc1ccc(O)cc1)C(=O)N[C@H](CO)C(=O)N[C@@H](Cc1ccccc1)C(=O)N[C@@H](C)C(=O)N[C@H](CO)C(N)=O [ADP355, H-DAsn-Ile-Pro-Nva-Leu-Tyr-DSer-Phe-Ala-DSer-NH2] (HELM PEPTIDE1{[dN].I.P.[Nva].L.Y.[dS].F.A.[dS].[am]}$$$$V2.0)",inhibitory effects on fibrotic gene expression,"[2]; adult skin fibroblasts, data not shown",Comparable inhibitory effects
same,"COL1A1, COL1A2, ASMA, and fibronectin (FN) gene expression induced by TGF-ß","[2]; neonatal skin fibroblasts, ADP355 10 μM preincubation then TGF-β2 24 h, qPCR and Western blot",potent abrogation
same,cell viability,[3],No effects on cell viability
same,binding to fibroblasts,[4],Specific binding
same,stimulation of [SBE]4-luc activity by TGF-ß,[5],abrogated
same,Smad2/3 phosphorylation elicited by TGF-ß,[6],partially reduced
same,stimulation of fibroblast migration,[7],abrogated the stimulation of fibroblast migration
same,fibrotic responses in 3D human skin equivalents,[8],attenuated fibrotic responses
same,constitutive fibrotic gene expression,[9],mitigated constitutive fibrotic gene expression
same,AMPK phosphorylation,[10],induced AMPK phosphorylation
same,anti-fibrotic activity in AMPK-null MEFs,[11],failed to exert anti-fibrotic activity
same,FAK activation and focal adhesion complex assembly augmented by TGF-ß,[12],substantially attenuated
same,ex vivo stability in serum,[13],"excellent ex vivo stability, with detectable levels of intact peptide even after 30 min incubation with serum"
same,tolerability of chronic treatment,[14],"well tolerated, with no signs of toxicity"
same,"skin fibrosis, low dose","[1]; 0.2 mg/kg/d, multiple independent experiments",Significant attenuation
same,"skin fibrosis, high dose","[1]; 1 mg/kg/d, multiple independent experiments",Significant attenuation
same,"dermal thickness, peptide by itself","[1]; ADP355 alone, without BLM",no significant effect
same,BLM-induced collagen accumulation,[1]; [19],significantly mitigated
same,BLM-induced dWAT attrition,[1]; [19],significantly mitigated
same,BLM-induced increase in dermal thickness,"[1]; daily i.p. ADP355 initiated concurrently with BLM (s.c. 14 d), continued for 21 d",significantly mitigated
same,BLM-induced fibrotic gene expression,"[1]; daily i.p. ADP355 initiated concurrently with BLM, qPCR of lesional skin",significantly mitigated
same,established dermal fibrosis,"[1]; treatment initiated at day 10 of BLM, data not shown",reversed established dermal fibrosis
same,hypoadiponectinemia and loss of subcutaneous adipose tissue induced by HIV protease inhibitors,[15],reverse
same,anti-tumor effects,[16],anti-tumor effects
same,AdipoR agonist activity,[17],potent AdipoR agonist
NC(=O)c1ncn([C@@H]2O[C@H](CO)[C@@H](O)[C@H]2O)c1N [AICAR],effect on or relative to the anti-fibrotic activities of adiponectin,[18],mimicked
c1cc(-c2cnn3cc(-c4ccc(OCCN5CCCCC5)cc4)cnc23)ccn1 [Compound C],effect on or relative to the anti-fibrotic activities of adiponectin,[18],blocked
B1,half-life,[15],relatively short half-life
same,solubility,[15],extreme insolubility
